Source: article PMC11310081, “Deep-learning-enabled antibiotic discovery through molecular de-extinction” (Nature Biomedical Engineering, 2024)
Entries after “also recorded” stand apart in the source; their conditions may differ. Peptide text beside a SMILES is read from it.

How the values were obtained:
A. baumannii ATCC 19606 [1] = assay: Skin abscess infection mouse model; format: in vivo, CD-1 mice; settings: for bacterial count, skin abscess (Panel 6b): CD-1 mice
Procedure: A. baumannii ATCC 19606 cells were grown in LB medium to an OD600 = 0.5. Cells were washed twice with sterile phosphate-buffered saline (PBS) (pH 7.4, 13,000 r.p.m. for 2 min) and resuspended to a final concentration of 10^6 (A. baumannii cells) colony-forming units per millilitre (c.f.u. ml^−1). Six-week-old female CD-1 mice from Charles River (stock number 18679700-022) were anaesthetized with isoflurane, and their backs were sterilized and shaved. A superficial linear skin abrasion was made with a needle to damage the stratum corneum and upper layer of the epidermis. An aliquot of 20 μl containing the bacterial load resuspended in PBS was inoculated over the scratched area. Two hours after the infection, peptides diluted in water at their MIC value were administered to the infected area, and the untreated mice were inoculated with the same volume of deionized water. Mice were euthanized, and the area of scarified skin was excised 2 days and 4 days post infection, homogenized using a bead beater for 20 min (25 Hz) and then serially diluted tenfold for quantification of colony-forming units. This quantitative method was used as it has been established to accurately reflect the number of bacteria present in a given infected area. MacConkey agar plates were used as A. baumannii colonies appear purple in this medium and can easily be distinguished from other strains. The experiments were performed with six mice per group. All experiments were performed blindly, and no animal subjects were excluded from the analysis. The skin abscess infection mouse model was approved by the University Laboratory Animal Resources from the University of Pennsylvania (protocol 806763). Statistical significance was determined using one-way analysis of variance (ANOVA) followed by Dunnett’s test in log10-transformed data to mitigate the effect of outliers; P values are presented for each group, with all groups being compared to the untreated control group.

A. baumannii ATCC 19606 [2] = assay: Neutropenic thigh infection mouse model; format: in vivo, CD-1 mice; settings: for bacterial count, thigh infection (Panel 6d): neutropenic CD-1 mice
Procedure: Six-week-old female CD-1 mice from Charles River (stock number 18679700-022) were rendered neutropenic by two doses of cyclophosphamide (150 mg kg^−1) applied intraperitoneally with an interval of 72 h. One day after the last dose of cyclophosphamide, the mice were injected intramuscularly in their right thigh with a bacterial load of 10^6 c.f.u. ml^−1 of A. baumannii ATCC 19606 cells. The bacteria had been grown in LB broth, washed twice with PBS (pH 7.4), and resuspended to the desired concentration. Two hours after bacterial injection, peptides resuspended in water were administered intraperitoneally, and the untreated mice were inoculated with the same volume of deionized water. Before each injection, mice were anaesthetized with isoflurane and monitored for respiratory rate and pedal reflexes. Next, we monitored the establishment of the infection and euthanized the mice. The infected area was excised 2 days and 4 days post infection, homogenized using a bead beater for 20 min (25 Hz), and then serially diluted tenfold for quantification of colony-forming units in MacConkey agar plates. The experiments were performed with six mice per group. All experiments were performed blindly, and no animal subjects were excluded from the analysis. The thigh infection mouse model was approved by the University Laboratory Animal Resources from the University of Pennsylvania (protocol 807055). Statistical significance was determined using one-way ANOVA followed by Dunnett’s test in log10-transformed data to mitigate the effect of outliers; P values are presented for each group, with all groups being compared to the untreated control group.

[3] = system: 11 clinically relevant bacterial pathogens; format: cell-based; settings: Supplementary Dataset 2; against the 11 pathogens tested
In short: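 Single colonies were grown overnight (16 h) at 37 °C in LB, diluted 1:100, regrown to OD600 = 0.3–0.5, then exposed to aqueous peptide solutions from 1 to 64 μmol l^−1 by broth microdilution, with plates read at 600 nm.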

[4] = A. baumannii ATCC 19606, day 2, replicate 1
[5] = A. baumannii ATCC 19606, day 2, replicate 2
[6] = A. baumannii ATCC 19606, day 2, replicate 3
[7] = A. baumannii ATCC 19606, day 2, replicate 4
[8] = A. baumannii ATCC 19606, day 2, replicate 5
[9] = A. baumannii ATCC 19606, day 2, replicate 6
[10] = A. baumannii ATCC 19606, day 4, replicate 1
[11] = A. baumannii ATCC 19606, day 4, replicate 2
[12] = A. baumannii ATCC 19606, day 4, replicate 3
[13] = A. baumannii ATCC 19606, day 4, replicate 4
[14] = A. baumannii ATCC 19606, day 4, replicate 5
[15] = A. baumannii ATCC 19606, day 4, replicate 6

With `CC(C)C[C@H](NC(=O)CNC(=O)[C@H](CCCNC(=N)N)NC(=O)[C@H](CCCCN)NC(=O)[C@H](CCCNC(=N)N)NC(=O)[C@@H](N)CCCCN)C(=O)N[C@@H](CCCCN)C(=O)N[C@@H](CC(C)C)C(=O)N[C@@H](C)C(=O)N[C@H](C(=O)N[C@@H](C)C(=O)N[C@@H](CC(C)C)C(=O)N[C@@H](CO)C(=O)N[C@@H](CC(C)C)C(=O)N[C@@H](CC(N)=O)C(=O)N[C@@H](CC(N)=O)C(=O)N[C@@H](CCCCN)C(=O)N[C@@H](Cc1ccccc1)C(=O)O)[C@@H](C)O` [Mylodonin-2] (H-KRKRGLKLATALSLNNKF-OH; N-terminus and C-terminus assumed) the “bacterial count, skin abscess (Panel 6b)” value (A. baumannii ATCC 19606 [1]; [4]) was 200000, the “bacterial count, skin abscess (Panel 6b)” value (A. baumannii ATCC 19606 [1]; [5]) was 200000 and the “bacterial count, skin abscess (Panel 6b)” value (A. baumannii ATCC 19606 [1]; [6]) was 600000. The “bacterial count, skin abscess (Panel 6b)” value (A. baumannii ATCC 19606 [1]; [7]) was 200000, the “bacterial count, skin abscess (Panel 6b)” value (A. baumannii ATCC 19606 [1]; [8]) was 400000 and the “bacterial count, skin abscess (Panel 6b)” value (A. baumannii ATCC 19606 [1]; [9]) was 400000. The “bacterial count, skin abscess (Panel 6b)” value (A. baumannii ATCC 19606 [1]; [10]) was 2000, the “bacterial count, skin abscess (Panel 6b)” value (A. baumannii ATCC 19606 [1]; [11]) was 2000 and the “bacterial count, skin abscess (Panel 6b)” value (A. baumannii ATCC 19606 [1]; [12]) was 60000. The “bacterial count, skin abscess (Panel 6b)” value (A. baumannii ATCC 19606 [1]; [13]) was 80000, the “bacterial count, skin abscess (Panel 6b)” value (A. baumannii ATCC 19606 [1]; [14]) was 200 and the “bacterial count, skin abscess (Panel 6b)” value (A. baumannii ATCC 19606 [1]; [15]) was 200. The “Anti-infective activity in skin abscess model, in words” value (A. baumannii ATCC 19606 [1]; single dose at MIC, compared with untreated control and polymyxin B, n = 6) was “comparable to that of the widely used antibiotic polymyxin B; also recorded: inhibited the proliferation of the infection for up to 4 days after treatment; also recorded: cleared the infection in some of the mice”, the “bacterial count, thigh infection (Panel 6d)” value (shortened to “bacterial count … (Panel 6d)”) (A. baumannii ATCC 19606 [2]; [4]) was 1200000 and the “bacterial count … (Panel 6d)” value (A. baumannii ATCC 19606 [2]; [5]) was 2400000. For the same molecule, the “bacterial count … (Panel 6d)” value (A. baumannii ATCC 19606 [2]; [6]) was 1000000, the “bacterial count … (Panel 6d)” value (A. baumannii ATCC 19606 [2]; [7]) was 1800000 and the “bacterial count … (Panel 6d)” value (A. baumannii ATCC 19606 [2]; [8]) was 200000. The “bacterial count … (Panel 6d)” value (A. baumannii ATCC 19606 [2]; [9]) was 400000, the “bacterial count … (Panel 6d)” value (A. baumannii ATCC 19606 [2]; [10]) was 1.2e+007 and the “bacterial count … (Panel 6d)” value (A. baumannii ATCC 19606 [2]; [11]) was 1.2e+008. For the same molecule, the “bacterial count … (Panel 6d)” value (A. baumannii ATCC 19606 [2]; [12]) was 2.0e+007, the “bacterial count … (Panel 6d)” value (A. baumannii ATCC 19606 [2]; [13]) was 2.0e+007 and the “bacterial count … (Panel 6d)” value (A. baumannii ATCC 19606 [2]; [14]) was 4.0e+007. The “bacterial count … (Panel 6d)” value (A. baumannii ATCC 19606 [2]; [15]) was 2.0e+007, the “Reduction in bacterial counts, 2 days post treatment” value (A. baumannii ATCC 19606 [2]; neutropenic thigh infection, single intraperitoneal dose, n = 6) was “as much as polymyxin B; also recorded: most potent activity, which was comparable to that of the positive control antibiotic, polymyxin B” and the “Active or Inactive” value [3] was “Active”.
